Data set [1] in a line: Aqueous solubility of the compound.
A short description of data set [2]: (§1) Percentage unbound in human plasma. The settings on record: Fu.
For data set [3], the target named is Baculoviral IAP repeat-containing protein 2 (Homo sapiens, UniProt Q13490).
Description: Inhibition of cIAP1 BIR3 domain (unknown origin) by fluorescence polarization assay
The nature of data set [4]: (§2) Intrinsic clearance in human liver microsomes. The settings on record: liver microsomes, CLH. Background: Microsomes from liver hold many membrane-bound enzymes, among them those of drug oxidation.
Data set [5] is described as follows: Lipophilicity, log D of the compound. The settings on record: octanol/water.
Data set [6] concerns MDA-MB-231. The data set is described as follows: Growth inhibition of human MDA-MB-231 cells. The format is functional.
Data set [7] addresses E3 ubiquitin-protein ligase XIAP (Homo sapiens, UniProt P98170). The data set is described as follows: Inhibition of XIAP BIR3 domain (unknown origin) by fluorescence polarization assay.
Data set [8] deals with Plasma. The description is as §1.
For data set [9], the system named is Liver microsome. The data set is described as §2. The settings on record: microsomes.
The nature of data set [10]: Intrinsic clearance in rat microsomes. It counts as ADME, Microsome.
Data set [11] addresses Voltage-gated inwardly rectifying potassium channel KCNH2 (Homo sapiens, UniProt Q12809). The data set is described as follows: Inhibition of human ERG.
A short description of data set [12]: Inhibition of Cytochrome P450 (unknown origin). It counts as ADME. To be noted: human.

pIC50: −log10 of the molar value. Where only a bound is given, the exact number is not on record here.

As usually defined, the solubility is how much of the substance goes into solution per volume. Higher therefore signals a readily soluble substance. By fraction unbound is commonly meant free concentration divided by total concentration. Low values mean little free substance, high ones much free substance. One may read the pIC50 as the negative decadic logarithm of the IC50, by convention in mol/L. For orientation: microsomal CLint means the capacity of the preparation to metabolise the compound, expressed as a volume cleared per time. The logD is the decadic logarithm of the distribution of all forms, ionised or not, between an organic phase and buffer at a given pH. As usually defined, the GI50 is the concentration that inhibits growth by half. Higher therefore signals lower sensitivity of the cells.

The compound `CN[C@@H](C)C(=O)N[C@H](C(=O)N1CC[C@H]2CCN(CCc3ccccc3)C[C@H]21)C1CCCCC1` had a solubility in data set [1] greater than 1000 µM. The compound also gave a free fraction (fraction unbound) in [2] of 0.057. The same compound gave a pIC50 in data set [3] of 7.57. This compound also displayed a microsomal CLint in data set [4] of 32 µL/min/mg. Moreover, the logD in data set [5] (logD) is 2.5.

In turn, `CN[C@@H](C)C(=O)N[C@H]1CCC[C@H]2C[C@H]3CCN(CCc4ccc(F)cc4)C[C@H]3N2C1=O` gave a solubility in data set [1] greater than 1000 µM. For the same compound, the 50% growth inhibitory concentration (GI50) in [6] (Homo sapiens, MDA-MB-231) was determined as 120 nM. The fraction unbound in [2] turned out to be 0.48. This compound also gave a pIC50 in data set [3] of 7.68. This compound also came in with a microsomal CLint in [4] of less than 4 µL/min/mg. Further, in [5] (logD), the logD came out at 1.3.

As for `CCCCN1CC[C@@H]2C[C@@H]3CCC[C@H](NC(=O)[C@H](C)NC)C(=O)N3[C@@H]2C1`, the negative logarithm of the IC50 (pIC50) in data set [3] is 5.92; in [7], less than 5.00.

With `CN[C@@H](C)C(=O)N[C@H]1CCC[C@H]2C[C@H]3CCN(C(=O)c4ccccc4)C[C@H]3N2C1=O`, the solubility in [1] is greater than 1000 µM. Also, in data set [2], the free fraction (fraction unbound) was greater than 0.7. The pIC50 in data set [3] and in data set [7] was less than 5.00 throughout. In [4], this compound yielded a microsomal CLint of 7.05 µL/min/mg. Moreover, in [5] (logD), the logD was -0.4.

For the compound `CN[C@@H](C)C(=O)N[C@H]1CCC[C@H]2C[C@H]3CCN(S(=O)(=O)Cc4ccccc4)C[C@H]3N2C1=O`, in data set [1], the solubility is greater than 1000 µM. The same compound came in with a GI50 in [6] (Homo sapiens, MDA-MB-231) greater than 11000 nM. The fraction unbound in data set [2] worked out at 0.4. Moreover, the pIC50 in data set [3] was 5.55. In data set [4], this compound gave a microsomal CLint of 25 µL/min/mg. For the same compound, the logD in data set [5] (logD) was 0.4.

`CN[C@@H](C)C(=O)N[C@H]1CCC[C@H]2C[C@H]3CCN(S(=O)(=O)c4ccccc4)C[C@H]3N2C1=O` yielded a solubility in [1] greater than 1000 µM. This compound returned a fraction unbound in data set [2] of 0.2. Moreover, in data set [3], the pIC50 is 5.10. The same compound had a microsomal CLint in data set [4] of 7.1 µL/min/mg. In data set [5] (logD), the logD came to 0.7.

`CN[C@@H](C)C(=O)N[C@H]1CCC[C@H]2C[C@H]3CCN(C(=O)C(OCC#CC#CCOC(C(=O)N4CC[C@@H]5C[C@@H]6CCC[C@H](NC(=O)[C@H](C)NC)C(=O)N6[C@@H]5C4)c4ccccc4)c4ccccc4)C[C@H]3N2C1=O` (single isomer, unassigned; isomer 2): halving of growth in data set [6] (GI50) required 200 nM. For the same compound, the Fu in [8] worked out at 10%. Besides, the log distribution coefficient (logD) in data set [5] is 1.9.

`C#CCOCC(C(=O)N1CC[C@@H]2C[C@@H]3CCC[C@H](NC(=O)[C@H](C)NC)C(=O)N3[C@@H]2C1)c1ccccc1` (stereo in doubt; 42): in data set [1], the solubility was greater than 1000 µM. Further, the GI50 in data set [6] amounted to 3700 nM. The fraction unbound in data set [2] is 0.14. In data set [9], this compound registered a CLH of 23 µL/min/mg. The same compound gave a logD in data set [5] (logD) of 0.6.

For `C#CCOCC(C(=O)N1CC[C@@H]2C[C@@H]3CCC[C@H](NC(=O)[C@H](C)NC)C(=O)N3[C@@H]2C1)c1ccccc1` (stereo in doubt; 43), the GI50 in data set [6] was greater than 11000 nM. In addition, in data set [8], the Fu is recorded as 17%. In data set [9], this compound gave a CLH of 8.5 µL/min/mg. For the same compound, the logD in [5] is reported as 0.8.

Consider `CN[C@@H](C)C(=O)N[C@H]1CCC[C@H]2C[C@H]3CCN(C(=O)C(OCC#CC#CCOC(C(=O)N4CC[C@@H]5C[C@@H]6CCC[C@H](NC(=O)[C@H](C)NC)C(=O)N6[C@@H]5C4)c4ccccc4)c4ccccc4)C[C@H]3N2C1=O` (stereo in doubt; 53), for which the solubility in data set [1] is greater than 1000 µM. Also, in data set [10], the microsomal CLint was found to be 7 µL/min/mg. Moreover, the INH was greater than 33 µM in data set [11] and greater than 20 µM in data set [12]. Besides, halving of growth in data set [6] (GI50) required 10 nM. The same compound yielded a fraction unbound in data set [2] of 0.051. In data set [5] (logD), the logD amounted to 1.8.

The values above are taken from ChEMBL document CHEMBL3232969, “Structure-based design and synthesis of tricyclic IAP (Inhibitors of Apoptosis Proteins) inhibitors” (Bioorg Med Chem Lett, 2014).
